According to patent US20240239813A1, “KRAS INHIBITORS AND PHARMACEUTICAL USES THEREOF” (RISEN (SUZHOU) PHARMA TECH CO., LTD., priority 2022, published 2024):

Key:
Format in all cases: cell-based
[1] = system: phosphorylation of p-ERK1/2 in AsPC-1; assay: Cellular phospho-ERK inhibition, AsPC-1; settings: Homo sapiens, ASPC1; AsPC-1, 4 hours
Experimental: (§1) The ability of exemplary test compounds to inhibit the phosphorylation of p-ERK1/2, which is the downstream effector of KRas in multiple human cancer cell lines such as AsPC-1 (Cobioer, CBP60546), GP2D (Cobioer, CBP60683), NCI-H358 (Cobioer, CBP60544), NCI-H727 (Cobioer, CBP60182), MKN-1 (Cobioer, CBP60486), HCT116 (ATCC, CCL-247), and HT-29 (Cobioer, CBP60011), was measured. Signal reflecting cell proliferation was detected with the Advanced phospho-ERK (Thr202/Tyr204) cellular kit (Cisbio, 64AERPEG).
(§2) Cells were cultured in the growth phase and 3×10^4 cells per well were plated in a 96-well plate (Corning, 3599). Cells were incubated 24 hours at 37° C. and 5% carbon dioxide in a humidity chamber. Serially diluted exemplary compounds were added to the cell plate which was then incubated for another 4 hours in a humid tray at 37° C. and 5% carbon dioxide. 1× Lysis buffer (Cisbio, 64AERPEG) was prepared at ambient temperature. Cell culture medium was removed, then lysis buffer (50 μL/well) was added to the cell plate and the plate was incubated at room temperature for 30 minutes on a shaker. […] The luminescent signal was measured on the VICTOR Nivo multimode plate reader according to the manufacturer's instructions. […]
(§3) IC50 was determined by fitting percent inhibition at each inhibitor concentration to the four-parameter nonlinear logistic equation using GraphPad Prism. […]

[2] = system: phosphorylation of p-ERK1/2 in GP2D; assay: Cellular phospho-ERK inhibition, GP2D; settings: Homo sapiens, 4 hours
Experimental: as §1, §2, §3

[3] = system: phosphorylation of p-ERK1/2 in NCI-H358; assay: Cellular phospho-ERK inhibition, NCI-H358; settings: Homo sapiens; NCI-H358, 4 hours
Experimental: as §1, §2, §3

[4] = system: phosphorylation of p-ERK1/2 in NCI-H727; assay: Cellular phospho-ERK inhibition, NCI-H727; settings: Homo sapiens; NCI-H727, 4 hours
Experimental: as §1, §2, §3

[5] = system: phosphorylation of p-ERK1/2 in HCT-116; assay: Cellular phospho-ERK inhibition, HCT-116; settings: Homo sapiens; HCT-116, 4 hours
Experimental: as §1, §2, §3

[6] = system: phosphorylation of p-ERK1/2 in MKN-1; assay: Cellular phospho-ERK inhibition, MKN-1; settings: Homo sapiens; MKN-1, 4 hours
Experimental: as §1, §2, §3

[7] = system: phosphorylation of p-ERK1/2 in HT-29; assay: Cellular phospho-ERK inhibition, HT-29; settings: Homo sapiens; HT-29, 4 hours
Experimental: as §1, §2, §3

IC50 [1]: 17.4 nM
IC50 [2]: 3.36 nM
IC50 [3]: 83.7 nM
IC50 [4]: 110 nM
IC50 [5]: 173 nM
IC50 [6]: 8.25 nM
IC50 [7]: > 1000 nM
SMILES: CCc1c(F)ccc2cc(O)cc(-c3ncc4c(N5CCCC6(CCO6)C5)nc(OC[C@@]56CCCN5C[C@H](F)C6)nc4c3F)c12 (stereo partly shown) [Compound 25]
